Source: patent publication US20150105252A1, “SUBSTITUTED PYRAZOLES AS HERBICIDES” (E I DU PONT DE NEMOURS AND COMPANY, priority 2013, published 2015)

Assays:
Surinam grass = test: Test E preemergence; type: in vivo, Brachiaria decumbens; conditions: 21 days, scale 0 to 100
Description: (§1) Seeds of plant species selected from bermudagrass (Cynodon dactylon), Surinam grass (Brachiaria decumbens), crabgrass, large (large crabgrass, Digitaria sanguinalis), crabgrass, naked (naked crabgrass, Digitaria nuda), foxtail, green (green foxtail, Setaria viridis), johnsongrass (Sorghum halepense), kochia (Kochia scoparia), morningglory (pitted morningglory, Ipomoea lacunosa), nutsedge, purple (purple nutsedge, Cyperus rotundus), ragweed (common ragweed, Ambrosia elation), mustard, black (black mustard, Brassica nigra), guineagrass (Panicum maximum), dallisgrass (Paspalum dilatatum), barnyardgrass (Echinochloa crus-galli), sandbur (southern sandbur, Cenchrus echinatus), sowthistle (common sowthistle, Sonchus oleraceous), ryegrass, Italian (Italian ryegrass, Lolium multiflorum), signalgrass (broadleaf signalgrass, Brachiaria platyphylla), dayflower, VA (Virginia (VA) dayflower, Commelina virginica), bluegrass (annual bluegrass, Poa annua), quackgrass (Elytrigia repens), mallow (common mallow, Malva sylvestris), buckwheat, wild (wild buckwheat, Polygonum convolvulus), leafy spurge (Euphorbia esula), common chickweed (Stellaria media), wild poinsettia (Euphorbia heterophylla), pigweed, palmer (palmer pigweed, Amaranthus palmeri), and pigweed (redroot pigweed, Amaranthus retroflexus) were planted into a blend of loam soil and sand and treated preemergence with test chemicals formulated in a non-phytotoxic solvent mixture which included a surfactant.
(§2) Treated plants and controls were maintained in a greenhouse for 21 days, after which time all species were compared to controls and visually evaluated. Plant response ratings, summarized in Table E, are based on a scale of 0 to 100 where 0 is no effect and 100 is complete control. A dash (-) response means no test result.

barnyardgrass = test: Test E preemergence; type: in vivo, Echinochloa crus-galli; conditions: 21 days, scale 0 to 100
Description: as §1, §2

dayflower, VA = test: Test F postemergence; type: in vivo, Commelina virginica; conditions: scale 0 to 100
Description: (§3) Seeds of plant species selected from corn (Zea mays), soybean (Glycine max), velvetleaf (Abutilon theophrasti), lambsquarters (Chenopodium album), wild poinsettia (Euphorbia heterophylla), pigweed, palmer (palmer pigweed, Amaranthus palmeri), common waterhemp (Amaranthus rudis), surinam grass (Brachiaria decumbens), large crabgrass (Digitaria sanguinalis), crabgrass, Brazil (Brazilian crabgrass, Digitaria horizontalis), fall panicum (Panicum dichotomiflorum), giant foxtail (Setaria faberii), green foxtail (Setaria viridis), goosegrass (Eleusine indica), johnsongrass (Sorghum halepense), common ragweed (Ambrosia elation), barnyardgrass (Echinochloa crus-galli), southern sandbur (Cenchrus echinatus), arrowleaf sida (Sida rhombifolia), Italian ryegrass (Lolium multiflorum), dayflower, VA (Virginia (VA) dayflower, Commelina virginica), field bindweed (Convolvulus arvensis), cocklebur (common cocklebur, Xanthium strumarium), morningglory (Ipomoea coccinea), nightshade (eastern black nightshade, Solanum ptycanthum), kochia (Kochia scoparia), yellow nutsedge (Cyperus esculentus), and hairy beggarticks (Bidens pilosa), were planted into a silt loam soil and treated preemergence with test chemicals formulated in a non-phytotoxic solvent mixture which included a surfactant.
(§4) At the same time, plants from these crop and weed species and also horseweed (Canada horseweed, Conyza canadensis), smartweed (ladysthumb smartweed, Polygonum persicaria), waterhemp_RES1, (ALS & Triazine resistant common waterhemp, Amaranthus rudis), and waterhemp_RES2, (ALS & HPPD resistant common waterhemp, Amaranthus rudis) were treated with postemergence applications of test chemicals formulated in the same manner. Plants ranged in height from 2 to 18 cm for postemergence treatments (1- to 4-leaf stage). Treated plants and controls were maintained in a greenhouse for 14 to 21 days, after which time all species were compared to controls and visually evaluated. Plant response ratings, summarized in Table F, are based on a scale of 0 to 100 where 0 is no effect and 100 is complete control. A dash (-) response means no test result.

common waterhemp = test: Test F postemergence; type: in vivo, Amaranthus rudis; conditions: scale 0 to 100
Description: as §3, §4

[1] = system: waterhemp_RES1 (ALS & Triazine resistant common waterhemp); test: Test F postemergence; type: in vivo, Amaranthus rudis; conditions: scale 0 to 100
Description: as §3, §4

[2] = system: waterhemp_RES2 (ALS & HPPD resistant common waterhemp); test: Test F postemergence; type: in vivo, Amaranthus rudis; conditions: scale 0 to 100
Description: as §3, §4

| Structure (SMILES) | Plant response rating, Surinam Grass (Surinam grass; 16 g ai/ha) | Plant response rating, Surinam Grass (Surinam grass; 31 g ai/ha) | Plant response rating, Surinam Grass (Surinam grass; 62 g ai/ha) | Plant response rating, Surinam Grass (Surinam grass; 125 g ai/ha) | Plant response rating, Surinam Grass (Surinam grass; 250 g ai/ha) | Plant response rating, Barnyardgrass (barnyardgrass; 16 g ai/ha) | Plant response rating, Barnyardgrass (barnyardgrass; 31 g ai/ha) | Plant response rating, Barnyardgrass (barnyardgrass; 62 g ai/ha) | Plant response rating, Barnyardgrass (barnyardgrass; 125 g ai/ha) | Plant response rating, Barnyardgrass (barnyardgrass; 250 g ai/ha) | Plant response rating, Dayflower, VA (dayflower, VA; Postemergence, 31 g ai/ha) | Plant response rating, Dayflower, VA (dayflower, VA; Postemergence, 125 g ai/ha) | Plant response rating, Dayflower, VA (dayflower, VA; Postemergence, 250 g ai/ha) | Plant response rating, Dayflower, VA (dayflower, VA; postemergence, 62 g ai/ha) | Plant response rating, Dayflower, VA (dayflower, VA; postemergence, 500 g ai/ha) | Plant response rating, Common Waterhemp (common waterhemp; Postemergence, 31 g ai/ha) | Plant response rating, Common Waterhemp (common waterhemp; Postemergence, 125 g ai/ha) | Plant response rating, Common Waterhemp (common waterhemp; Postemergence, 250 g ai/ha) | Plant response rating, Common Waterhemp (common waterhemp; postemergence, 62 g ai/ha) | Plant response rating, Common Waterhemp (common waterhemp; postemergence, 500 g ai/ha) | other results |
| --- | --- | --- | --- | --- | --- | --- | --- | --- | --- | --- | --- | --- | --- | --- | --- | --- | --- | --- | --- | --- | --- |
| CCc1cc(C(=O)NCC(F)(F)F)nn1Cc1ccnc(C(F)(F)F)c1 [Compound 78, 5-ethyl-N-(2,2,2-trifluoroethyl)-1-[[(2-trifluoromethyl)-4-pyridinyl]methyl]-1H-pyrazole-3-carboxamide] | 20 | 80 | 90 | 90 | 100 | 35 | 95 | 100 | 100 | 100 | 20 | 60 | 90 | 50 | 98 | 70 | 75 | 70 | 60 | 98 | Plant response rating, Waterhemp_RES1 ([1]; Postemergence, 31 g ai/ha): 60; Plant response rating, Waterhemp_RES1 ([1]; Postemergence, 125 g ai/ha): 60; Plant response rating, Waterhemp_RES1 ([1]; Postemergence, 250 g ai/ha): 65; Plant response rating, Waterhemp_RES1 ([1]; postemergence, 62 g ai/ha): 70; Plant response rating, Waterhemp_RES1 ([1]; postemergence, 500 g ai/ha): 100; Plant response rating, Waterhemp_RES2 ([2]; Postemergence, 31 g ai/ha): 60; Plant response rating, Waterhemp_RES2 ([2]; Postemergence, 125 g ai/ha): 70; Plant response rating, Waterhemp_RES2 ([2]; Postemergence, 250 g ai/ha): 75; Plant response rating, Waterhemp_RES2 ([2]; postemergence, 62 g ai/ha): 65; Plant response rating, Waterhemp_RES2 ([2]; postemergence, 500 g ai/ha): 95 |
| CCc1cc(C(=O)NC(C)C)nn1Cc1ccnc(C(F)(F)F)c1 [Compound 103] | 95 | 100 | 100 | 100 | 100 | 90 | 100 | 100 | 100 | 100 | – | – | – | – | – | – | – | – | – | – | – |
| CCOc1cc(C(=O)NCC(F)(F)F)nn1Cc1ccnc(C(F)(F)F)c1 [Compound 104] | 50 | 75 | 95 | 100 | 100 | 95 | 100 | 100 | 100 | 100 | 35 | 70 | 90 | 55 | 95 | 75 | 85 | 85 | 80 | 90 | Plant response rating, Waterhemp_RES1 ([1]; Postemergence, 31 g ai/ha): 70; Plant response rating, Waterhemp_RES1 ([1]; Postemergence, 125 g ai/ha): 90; Plant response rating, Waterhemp_RES1 ([1]; Postemergence, 250 g ai/ha): 75; Plant response rating, Waterhemp_RES1 ([1]; postemergence, 62 g ai/ha): 75; Plant response rating, Waterhemp_RES1 ([1]; postemergence, 500 g ai/ha): 85; Plant response rating, Waterhemp_RES2 ([2]; Postemergence, 31 g ai/ha): 80; Plant response rating, Waterhemp_RES2 ([2]; Postemergence, 125 g ai/ha): 95; Plant response rating, Waterhemp_RES2 ([2]; Postemergence, 250 g ai/ha): 80; Plant response rating, Waterhemp_RES2 ([2]; postemergence, 62 g ai/ha): 80; Plant response rating, Waterhemp_RES2 ([2]; postemergence, 500 g ai/ha): 85 |
